Results published in patent publication US20020137929A1, “1 - (3-heterocyclylphenyl) isothiourea, -isourea, -guanidine and -amidine herbicidal agents” (Intellectual Property Department, BASF Aktiengesellschaft, priority 1998, published 2002).

What was measured:
SETVI (Foxtail, Green) = assay: Postemergence herbicidal evaluation; format: in vivo, Setaria viridis; settings: postemergence
Summary of the method: (§1)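 Visual 0–9 rating versus control (stand, vigor, malformation, size, chlorosis, overall appearance), taken four to five weeks post-spray. Two-week-old seedlings received roughly 0.0156–0.500 kg/ha active in acetone/water (50/50) with 0.5% TWEEN 20 via nozzle at 40 psi.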

CASOB (Sicklepod) = assay: Preemergence herbicidal evaluation; format: in vivo, Cassia obtusifolia; settings: rated 4-5 weeks after treatment
Summary of the method: (§2)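 In this greenhouse assay, monocot and dicot seeds are planted in soil and treated prior to emergence with an aqueous acetone spray (about 0.0156-0.500 kg/ha). Plants are assessed visually against control on a 0-9 scale after 4-5 weeks.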

ORYSAT (Rice, Tebonnet) = assay: Postemergence herbicidal evaluation; format: in vivo, Oryza sativa, (L.) Tebonnet; settings: postemergence
Summary of the method: as §1

CYPSE (Flatsedge) = assay: Postemergence weed control under flooded paddy conditions; format: in vivo, Cyperus serotinus; settings: postemergence weeds, 3-4 weeks after treatment
From the text: Results of herbicide evaluation are expressed on a rating scale (0-9). The scale is based upon a visual observation of plant stand, vigor, malformation, size, chlorosis and overall plant appearance as compared with a control.
Plastic containers containing weeds which are 3 to 5 cm tall and rice seedlings at the 1.5 to 2.5 leaf stage are flooded with water. The water is maintained at 1.5 to 3 cm above the soil surface for the duration of the experiment. Test compounds are applied as aqueous/ acetone mixtures 50/50 v/v directly into the flood water to provide the equivalent of about 0.0313 to 0.500 kg/ha of active ingredient. The treated containers are placed on greenhouse benches and cared for in accordance with conventional greenhouse procedures. Three to four weeks after treatment, the test is terminated and each container is examined and herbicidal effect rated according to the rating system provided in Example 37. The compounds evaluated are reported by compound number given in Example 37.

[1] = system: CHEAL (Lambsquarters, Common); assay: Preemergence herbicidal evaluation; format: in vivo, Chenopodium album; settings: rated 4-5 weeks after treatment
Summary of the method: as §2

ECHCG (Barnyardgrass) [2] = assay: Preemergence herbicidal evaluation; format: in vivo, Echinochloa crus-galli; settings: rated 4-5 weeks after treatment
Summary of the method: as §2

ZEAMX (Corn, Field) [3] = assay: Postemergence herbicidal evaluation; format: in vivo, Zea mays; settings: postemergence
Summary of the method: as §1

CYPIR (Rice Flatsedge) = assay: Postemergence weed control under flooded paddy conditions; format: in vivo, Cyperus iria; settings: postemergence weeds, 3-4 weeks after treatment
Summary of the method: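 Weeds 3 to 5 cm tall and rice seedlings at the 1.5 to 2.5 leaf stage were flooded, with water held 1.5 to 3 cm above the soil. Compounds in 50/50 v/v aqueous/acetone went into the flood water at about 0.0313 to 0.500 kg/ha. Visual 0-9 ratings versus control were made 3 to 4 weeks later.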

[4] = system: CHEAL (Lambsquarters, Common); assay: Postemergence herbicidal evaluation; format: in vivo, Chenopodium album; settings: postemergence
Summary of the method: as §1

ZEAMX (Corn, Field) [5] = assay: Preemergence herbicidal evaluation; format: in vivo, Zea mays; settings: rated 4-5 weeks after treatment
Summary of the method: as §2

ECHCG (Barnyardgrass) [6] = assay: Postemergence herbicidal evaluation; format: in vivo, Echinochloa crus-galli; settings: postemergence
Summary of the method: as §1

[7] = system: TRZAWR (Wheat, Winter, cv Riband); assay: Preemergence herbicidal evaluation; format: in vivo, Triticum aestivum; settings: rated 4-5 weeks after treatment
Summary of the method: as §2

ABUTH (Velvetleaf) [8] = assay: Postemergence herbicidal evaluation; format: in vivo, Abutilon theophrasti; settings: postemergence
Summary of the method: as §1

ABUTH (Velvetleaf) [9] = assay: Preemergence herbicidal evaluation; format: in vivo, Abutilon theophrasti; settings: rated 4-5 weeks after treatment
Summary of the method: as §2

CN1C(=O)C(F)SC1=Nc1cc(N2C(=O)C3=C(CCCC3)C2=O)c(F)cc1Cl (stereo not drawn) [Compound 5, N-{4-chloro-2-fluoro-5-[(5-fluoro-3-methyl-4-oxo-2-thiazolidinylidene)amino]phenyl}-1-cyclohexene-1,2-dicarboximide]
SETVI herbicidal rating (SETVI (Foxtail, Green); rate 0.0157 kg/ha): 0.0 | SETVI herbicidal rating (SETVI (Foxtail, Green); rate 0.0313 kg/ha): 0.0 | SETVI herbicidal rating (SETVI (Foxtail, Green); rate 0.0625 kg/ha): 2.0 | SETVI herbicidal rating (SETVI (Foxtail, Green); rate 0.1250 kg/ha): 4.0 | SETVI herbicidal rating (SETVI (Foxtail, Green); rate 0.2500 kg/ha): 8.0 | SETVI herbicidal rating (SETVI (Foxtail, Green); rate 0.5000 kg/ha): 4.0 | CASOB preemergence herbicidal rating (CASOB (Sicklepod); rate 0.0625 kg/ha): 0.0 | CASOB preemergence herbicidal rating (CASOB (Sicklepod); rate 0.1250 kg/ha): 0.0 | CASOB preemergence herbicidal rating (CASOB (Sicklepod); rate 0.2500 kg/ha): 0.0 | CASOB preemergence herbicidal rating (CASOB (Sicklepod); rate 0.5000 kg/ha): 0.0 | ORYSAT herbicidal rating (ORYSAT (Rice, Tebonnet); rate 0.0157 kg/ha): 1.5 | ORYSAT herbicidal rating (ORYSAT (Rice, Tebonnet); rate 0.0313 kg/ha): 1.5 | ORYSAT herbicidal rating (ORYSAT (Rice, Tebonnet); rate 0.0625 kg/ha): 2.5 | ORYSAT herbicidal rating (ORYSAT (Rice, Tebonnet); rate 0.1250 kg/ha): 2.5 | ORYSAT herbicidal rating (ORYSAT (Rice, Tebonnet); rate 0.2500 kg/ha): 2.5 | ORYSAT herbicidal rating (ORYSAT (Rice, Tebonnet); rate 0.5000 kg/ha): 2.5 | Herbicidal rating CYPSE (CYPSE (Flatsedge); rate 0.1250 kg/ha): 0.0 | Herbicidal rating CYPSE (CYPSE (Flatsedge); rate 0.2500 kg/ha): 0.0 | Herbicidal rating CYPSE (CYPSE (Flatsedge); rate 0.5000 kg/ha): 0.5 | CHEAL preemergence herbicidal rating ([1]; rate 0.0625 kg/ha): 4.0 | CHEAL preemergence herbicidal rating ([1]; rate 0.1250 kg/ha): 5.0 | CHEAL preemergence herbicidal rating ([1]; rate 0.2500 kg/ha): 9.0 | CHEAL preemergence herbicidal rating ([1]; rate 0.5000 kg/ha): 9.0 | ECHCG preemergence herbicidal rating (ECHCG (Barnyardgrass) [2]; rate 0.0625 kg/ha): 0.0 | ECHCG preemergence herbicidal rating (ECHCG (Barnyardgrass) [2]; rate 0.1250 kg/ha): 2.0 | ECHCG preemergence herbicidal rating (ECHCG (Barnyardgrass) [2]; rate 0.2500 kg/ha): 6.0 | ECHCG preemergence herbicidal rating (ECHCG (Barnyardgrass) [2]; rate 0.5000 kg/ha): 7.0 | ZEAMX herbicidal rating (ZEAMX (Corn, Field) [3]; rate 0.0157 kg/ha): 3.5 | ZEAMX herbicidal rating (ZEAMX (Corn, Field) [3]; rate 0.0313 kg/ha): 3.5 | ZEAMX herbicidal rating (ZEAMX (Corn, Field) [3]; rate 0.0625 kg/ha): 4.0 | ZEAMX herbicidal rating (ZEAMX (Corn, Field) [3]; rate 0.1250 kg/ha): 3.5 | ZEAMX herbicidal rating (ZEAMX (Corn, Field) [3]; rate 0.2500 kg/ha): 4.0 | ZEAMX herbicidal rating (ZEAMX (Corn, Field) [3]; rate 0.5000 kg/ha): 3.5 | Herbicidal rating CYPIR (CYPIR (Rice Flatsedge); rate 0.1250 kg/ha): 0.0 | Herbicidal rating CYPIR (CYPIR (Rice Flatsedge); rate 0.2500 kg/ha): 0.0 | Herbicidal rating CYPIR (CYPIR (Rice Flatsedge); rate 0.5000 kg/ha): 0.0 | CHEAL herbicidal rating ([4]; rate 0.0157 kg/ha): 2.0 | CHEAL herbicidal rating ([4]; rate 0.0313 kg/ha): 2.0 | CHEAL herbicidal rating ([4]; rate 0.0625 kg/ha): 6.0 | CHEAL herbicidal rating ([4]; rate 0.1250 kg/ha): 9.0 | CHEAL herbicidal rating ([4]; rate 0.2500 kg/ha): 8.0 | CHEAL herbicidal rating ([4]; rate 0.5000 kg/ha): 9.0 | ZEAMX preemergence herbicidal rating (ZEAMX (Corn, Field) [5]; rate 0.0625 kg/ha): 0.0 | ZEAMX preemergence herbicidal rating (ZEAMX (Corn, Field) [5]; rate 0.1250 kg/ha): 1.0 | ZEAMX preemergence herbicidal rating (ZEAMX (Corn, Field) [5]; rate 0.2500 kg/ha): 2.0 | ZEAMX preemergence herbicidal rating (ZEAMX (Corn, Field) [5]; rate 0.5000 kg/ha): 2.0 | ECHCG herbicidal rating (ECHCG (Barnyardgrass) [6]; rate 0.0157 kg/ha): 0.0 | ECHCG herbicidal rating (ECHCG (Barnyardgrass) [6]; rate 0.0313 kg/ha): 0.0 | ECHCG herbicidal rating (ECHCG (Barnyardgrass) [6]; rate 0.0625 kg/ha): 0.0 | ECHCG herbicidal rating (ECHCG (Barnyardgrass) [6]; rate 0.1250 kg/ha): 3.0 | ECHCG herbicidal rating (ECHCG (Barnyardgrass) [6]; rate 0.2500 kg/ha): 4.0 | ECHCG herbicidal rating (ECHCG (Barnyardgrass) [6]; rate 0.5000 kg/ha): 2.0 | TRZAWR preemergence herbicidal rating ([7]; rate 0.0625 kg/ha): 0.0 | TRZAWR preemergence herbicidal rating ([7]; rate 0.1250 kg/ha): 0.0 | TRZAWR preemergence herbicidal rating ([7]; rate 0.2500 kg/ha): 1.0 | TRZAWR preemergence herbicidal rating ([7]; rate 0.5000 kg/ha): 2.0 | ABUTH herbicidal rating (ABUTH (Velvetleaf) [8]; rate 0.0157 kg/ha): 1.0 | ABUTH herbicidal rating (ABUTH (Velvetleaf) [8]; rate 0.0313 kg/ha): 2.0 | ABUTH herbicidal rating (ABUTH (Velvetleaf) [8]; rate 0.0625 kg/ha): 9.0 | ABUTH herbicidal rating (ABUTH (Velvetleaf) [8]; rate 0.1250 kg/ha): 9.0 | ABUTH herbicidal rating (ABUTH (Velvetleaf) [8]; rate 0.2500 kg/ha): 9.0 | ABUTH herbicidal rating (ABUTH (Velvetleaf) [8]; rate 0.5000 kg/ha): 9.0 | ABUTH preemergence herbicidal rating (ABUTH (Velvetleaf) [9]; rate 0.0625 kg/ha): 0.0 | ABUTH preemergence herbicidal rating (ABUTH (Velvetleaf) [9]; rate 0.1250 kg/ha): 0.0 | ABUTH preemergence herbicidal rating (ABUTH (Velvetleaf) [9]; rate 0.2500 kg/ha): 0.0 | ABUTH preemergence herbicidal rating (ABUTH (Velvetleaf) [9]; rate 0.5000 kg/ha): 0.0
